Reference: patent publication US10576077B2, “Pharmaceutical salt forms of Cepharanthine and Tetrandrine” (Southwest Research Institute, priority 2015, dated 2020)
Structures can show the parent of a compound that is named as a salt.

Columns and labels:
[1] = assay type: physicochemical
Experimental: A small amount of the sample (0.6 ml) was removed from each vial and centrifuged to collect 0.3 ml clear supernatant.
The sample was filtered through a 0.45 μm PTFE syringe filter and the filtrate sent for HPLC analysis (Table 10).

[2] = system: rat test animals; experiment: Oral dosing of concentrated CEPN.2HCl water solutions in rats; assay type: in vivo; conditions: ENG sample, concentrated water solution
[3] = Solubility of Cepharanthine salts in water; assay type: physicochemical

Row | Compound | Sample solubility [1] [mg/mL] | further results
1 | CEPN.2HCl [16-0203-012-098-10] | 38.7 | 
2 | Cepharanthine.2HCl [CEPN.2HCl] |  | Effect of oral dosing of concentrated water solutions [2]: gelation in the stomach of the rat test animals and resultant toxic effects; Final Concentration (solubility in water) [3]: 51.6 mg/mL
3 | CEPN.2HCl [16-0203-012-098-27] | 39.7 | 
4 | CEPN.2HCl [16-0203-012-097-27] | 31.9 | 
5 | Cepharanthine bis-pyruvate [Pyruvic acid salt] |  | Final Concentration (solubility in water) [3]: 488 mg/mL
6 | CEPN.2HCl [16-0203-012-119-35] | 33.9 | 
7 | COc1ccc2cc1Oc1ccc(cc1)C[C@H]1c3c(cc4c(c3Oc3cc5c(cc3OC)CCN(C)[C@@H]5C2)OCO4)CCN1C [HBr salt, Cepharanthine bis-hydrobromide] |  | solubility ([3]; read-out: Final Concentration (solubility in water)): 17.1 mg/mL
8 | CEPN.2HCl [16-0203-012-105-23] | 36.5 | 
